Experimental data as given in patent publication US20260184675A1, “CHIRAL ISOMERIC SULFITE COMPOUND AND APPLICATION THEREOF” (Chengdu Hanova BioSciences Co., Ltd, priority 2024, published 2026).

Legend:
[1] = test system: pest eggs of Tetranychus cinnabarinus; assay: Effect on hatching of pest eggs of Tetranychus cinnabarinus, leaf disc method; assay type: in vivo; conditions: for Hatching rate (%): 7 days after insecticide delivery
In short: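 Adult female mites laid eggs on 2.0 cm Vicia faba leaf discs for up to 36 h; discs with counted eggs were dipped 10 s in compound solution or water, then kept moist. Hatched eggs were counted 7 days after treatment and control effect was calculated by formula.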

[2] = test system: eggs of Spodoptera litura; assay: Effect on hatching of eggs of Spodoptera litura, egg piece soaking; assay type: in vivo; conditions: 500 ppm; for Hatching rate (%), Replicate 1 / Hatching rate (%), Replicate 2 / Hatching rate (%), Replicate 3 / Number of unhatched larvae 4 days after insecticide delivery, Replicate 1 / Number of unhatched larvae 4 days after insecticide delivery, Replicate 2 / Number of unhatched larvae 4 days after insecticide delivery, Replicate 3: Spodoptera litura eggs; for Hatching rate (%), Replicate 1 / Hatching rate (%), Replicate 2 / Hatching rate (%), Replicate 3: 4 days after delivery; for Number of unhatched larvae 4 days after insecticide delivery, Replicate 1 / Number of unhatched larvae 4 days after insecticide delivery, Replicate 2 / Number of unhatched larvae 4 days after insecticide delivery, Replicate 3: soaked 10 minutes
In short: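 Egg pieces of about 60 eggs were soaked 10 min in test agent at 500 ppm, blotted, then held singly at 24±1 °C, 80±10% RH, 12:12 L:D. Hatched and unhatched eggs were counted on day 4 to give hatching rate and control effect; 3 replicates.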

Row | Structure (SMILES) | Hatching rate (%) ([1]; 0.25 mg/L, Replicate 1) | Hatching rate (%) ([1]; 0.25 mg/L, Replicate 2) | Number of hatched larvae 7 days after insecticide delivery ([1]; 0.25 mg/L, Replicate 1) | Number of hatched larvae 7 days after insecticide delivery ([1]; 0.25 mg/L, Replicate 2) | Hatching rate (%) ([1]; 0.5 mg/L, Replicate 1) | Hatching rate (%) ([1]; 0.5 mg/L, Replicate 2) | Number of hatched larvae 7 days after insecticide delivery ([1]; 0.5 mg/L, Replicate 1) | Number of hatched larvae 7 days after insecticide delivery ([1]; 0.5 mg/L, Replicate 2) | Hatching rate (%) ([1]; 1 mg/L, Replicate 1) | Hatching rate (%) ([1]; 1 mg/L, Replicate 2) | Number of hatched larvae 7 days after insecticide delivery ([1]; 1 mg/L, Replicate 1) | Number of hatched larvae 7 days after insecticide delivery ([1]; 1 mg/L, Replicate 2) | Hatching rate (%), Replicate 1 [2] [%] | Hatching rate (%), Replicate 2 [2] [%] | Hatching rate (%), Replicate 3 [2] [%] | Number of unhatched larvae 4 days after insecticide delivery, Replicate 1 [2] | Number of unhatched larvae 4 days after insecticide delivery, Replicate 2 [2] | Number of unhatched larvae 4 days after insecticide delivery, Replicate 3 [2] | also measured
1 | C[C@@H](COS(=O)OCCF)Oc1ccc(Cl)cc1Cl (stereo partly drawn) [1-(S,R)] | 59.57 | 76.09 | 19 | 11 | 35.29 | 31.25 | 33 | 44 | 2.56 | 0.00 | 76 | 64 | – | – | – | – | – | – | Hatching rate (%), Replicate 1 ([2]; listed as 1-(S, R)): 62.30%; Hatching rate (%), Replicate 2 ([2]; listed as 1-(S, R)): 63.08%; Hatching rate (%), Replicate 3 ([2]; listed as 1-(S, R)): 60.34%; Number of unhatched larvae 4 days after insecticide delivery, Replicate 1 ([2]; listed as 1-(S, R)): 23; Number of unhatched larvae 4 days after insecticide delivery, Replicate 2 ([2]; listed as 1-(S, R)): 24; Number of unhatched larvae 4 days after insecticide delivery, Replicate 3 ([2]; listed as 1-(S, R)): 23
2 | CCC(COS(=O)OCCF)Oc1ccc(Cl)cc1Cl [19′-(R,R)] | 45.07 | 44.90 | 39 | 27 | 5.77 | 4.48 | 49 | 64 | 0.00 | 0.00 | 57 | 69 | – | – | – | – | – | – | inhibitory effect on the hatching of pest eggs of Tetranychus cinnabarinus (in words) ([1]; 1 ppm): excellent inhibitory effects; inhibitory activity on the hatching of eggs of Spodoptera litura (in words) [2]: good inhibitory activities; Hatching rate (%), Replicate 1 ([2]; listed as 19′-(R, R)): 17.54%; Hatching rate (%), Replicate 2 ([2]; listed as 19′-(R, R)): 16.95%; Hatching rate (%), Replicate 3 ([2]; listed as 19′-(R, R)): 19.12%; Number of unhatched larvae 4 days after insecticide delivery, Replicate 1 ([2]; listed as 19′-(R, R)): 47; Number of unhatched larvae 4 days after insecticide delivery, Replicate 2 ([2]; listed as 19′-(R, R)): 49; Number of unhatched larvae 4 days after insecticide delivery, Replicate 3 ([2]; listed as 19′-(R, R)): 55
3 | CC[C@@H](COS(=O)OCCF)Oc1ccc(Cl)cc1Cl (stereo partly drawn) [19′-(S,R)] | 68.49 | 69.23 | 23 | 20 | 35.09 | 32.79 | 37 | 41 | 0.00 | 1.85 | 68 | 53 | – | – | – | – | – | – | Hatching rate (%), Replicate 1 ([2]; listed as 19′-(S, R)): 53.57%; Hatching rate (%), Replicate 2 ([2]; listed as 19′-(S, R)): 53.23%; Hatching rate (%), Replicate 3 ([2]; listed as 19′-(S, R)): 53.73%; Number of unhatched larvae 4 days after insecticide delivery, Replicate 1 ([2]; listed as 19′-(S, R)): 26; Number of unhatched larvae 4 days after insecticide delivery, Replicate 2 ([2]; listed as 19′-(S, R)): 29; Number of unhatched larvae 4 days after insecticide delivery, Replicate 3 ([2]; listed as 19′-(S, R)): 31
4 | CC(C)(COS(=O)OCCF)Oc1ccc(Cl)cc1Cl (centres unmarked) [R-10′] | 74.07 | 76.79 | 21 | 13 | 42.86 | 45.07 | 36 | 39 | 8.47 | 7.46 | 54 | 62 | 61.82 | 62.07 | 63.64 | 21 | 22 | 24 | –
5 | CC(C)(COc1ccc(Cl)cc1Cl)OS(=O)OCCF (centres unmarked) [Compound R-10] | 73.21 | 74.03 | 15 | 20 | 42.67 | 41.94 | 28 | 36 | 8.11 | 6.25 | 68 | 60 | 60.87 | 64.15 | 62.07 | 27 | 19 | 22 | –
